# Key:
# Format in all cases: cell-based, rat
# tubulin = experiment: Immunocytochemical analysis of primary cultured and cocultured cells
# Description: (§1) Immuncytochemical analysis was performed for differentiation studies of primary cultures of cortex, hippocampus, and co-cultures (CoCul) in absence of growth factors and serum free medium.
# (§2) The cultured cells of cortex, hippocampus, and co-cultured cells in the presence of serum free medium were plated in chamber slides at the density of 20,000 cells/mL and treated with a proliferative dose of isoxylitones, i.e., 150 μg/ml for 24 hrs at 37° C. and 5% CO2 to let the cells adhere on the bottom surface of the slide. Following incubation, the media was refreshed and the cells were immunolabelled as mentioned in table #2.1.
# (§3) For immunostaining, the media was removed; cells were washed gently with 1 mL of 1×PBS. After removing 1×PBS, 4% formaldehyde was added and the slides were incubated for 20 minutes at room temperature to fix the cells. The fixative was aspirated followed by a three times rinse with 1 mL of 1×PBS. After washing, the blocking buffer (BSA having 3% normal goat serum, 0.2% tween-20 and 0.3% of Triton X-100 in 10×PBS) was added and the slides were kept at room temperature for an hour. Then, the cells were washed gently three times with 1×PBS on an orbital shaker and 300 μL of primary antibodies (dilution mentioned in table #2.1) were added to each slide and incubated overnight at 4° C. Following incubation, the cells were washed gently in PBS three times (5 minutes each wash) on an orbital shaker. Next secondary antibody (Table #2.1) in 3% normal serum or BSA was added to their respective chamber and incubated for 1 hour at room temperature in dark. Following incubation, the slides were washed with 1×PBS.
# (§4) Diluted Dapi (1:1000) was added into each slide to counter stain the nucleus. After rinsing twice with distilled water, images were captured using the Nikon 90i with fluorescence microscopes (Nikon. Tokyo, Japan) equipped with Nuance Software version 3.1 (Caliper Life Sciences. Hopkinton, Mass.). The magnification used was 20×.
# (§5) For quantification studies, ImageJ software (National Institutes of Health, USA) was used to digitalized the images. This software provides multiple imaging system data comparisons taking densitometry in consideration. Briefly, 5 different regions were randomly selected and the fluorescence intensity was quantified in cells and the background intensity of each image was subtracted from it, the residual particles were measured to represent expression of relevant protein. Cells or fields were counted and percentage intensity of protein expression was measured and means percentage intensity was calculated. Data from three individual experiments was obtained and expressed as means±SEM.
# Neuro D1 = experiment: as above
# Description: as §1, §2, §3, §4, §5
# neurogenin = experiment: as above
# Description: as §1, §2, §3, §4, §5
# nestin = experiment: as above; conditions: 24 h
# Description: as §1, §2, §3, §4, §5
# Cocul-CTX cells = experiment: BrdU proliferation ELISA assay; conditions: 150 μg/ml, 24 h, FIG. 6
# Description: (§6) Wistar rats (150-200 gm) were used to isolate bone marrow (BM). Rats were sacrificed and their femurs were removed aseptically. The bone marrow (BM) was flushed from the shaft of the bone by clipping of the epiphysial ends and flushing using a 26-gauge needle with ˜2 ml of Dulbecco's Modified Eagle's medium (DMEM) supplemented with 5% FBS, 1% penicillin/streptomycin solution, 1% sodium pyruvate and L-glutamine. The BM was then centrifuged for 8 minutes at 1000 rpm. Following centrifugation, cell pellet was collected and 1 ml of fresh DMEM was added. The cell viability was checked using trypan blue exclusion method. The cells were then divided into three equal parts. One part was co-cultured with freshly isolated hippocampal cells in T75 cm^2 flask, 2nd with freshly isolated cortical cells and the third portion (BM cells only) was cultured as a control. The cell density for co-cultures was set at 140,000 cells/ml for each type of culture. The cultured flasks were then incubated at 37° C. and 5% CO2. After 4-5 days, floating hematopoietic cells and dead debris/tissues of hippocampus and cortex were removed and bone marrow stromal cells (BMSCs) were recovered due to their tendency to adhere. Medium was replaced after every 3 to 4 days till cells became 80-90% confluent. […]
# Cocul-HP cells = experiment: BrdU proliferation ELISA assay; conditions: 24 h, increase reported with 100 and 150 μg/mL, FIG. 6
# Description: as §6
smiles,measurement,setting,value
CC(=O)C=C1C=C(C)CC(C)(C)C1 (mixture of isomers) [isoxylitones],tubulin expression (immunofluorescence),"tubulin; (A) cortical and (B) CoCul-CTX cells, P<0.01, FIG. 12",significant upregulation of tubulin
same,tubulin expression (immunofluorescence),"tubulin; (A) hippocampal and (B) CoCul-HP cells, 150 μg/ml, 24 h, vs control, FIG. 13",significant upregulation
same,Neuro D1 protein expression,"Neuro D1; (A) cortical and (B) CoCul-CTX cells, 150 μg/ml, 24 h, vs control, FIG. 16",significant upregulation
same,Neuro D1 immunofluorescence intensity,"Neuro D1; (A) hippocampal and (B) CoCul-HP cells, FIG. 17",significant up-regulation in immunofluorescence of NeuroD1 intensity
same,neurogenin expression (immunostaining),"neurogenin; (A) cortical and (B) CoCul-CTX cells, FIG. 18",prominent neurogenin expression
same,neurogenin expression (immunostaining),"neurogenin; (A) hippocampal and (B) CoCul-HP cells, 24 h, vs control P<0.001, FIG. 19",elevated neurogenin expression
same,nestin expression (immunofluorescence),"nestin; (A) CTX and (B) CoCul-CTX cells, vs control, FIG. 9",no significant difference
same,nestin expression (immunofluorescence),"nestin; (A) hippocampal and (B) CoCul-HP cells, 150 μg/ml, vs untreated control, FIG. 8",up-regulation of nestin protein expression
same,BrdU positive cells,Cocul-CTX cells,increased BrdU positive cells
same,BrdU positive cells,Cocul-HP cells,significantly elevated the BrdU positive cells
